Test results: US11203595B2, “Aza-indazole compounds for use in tendon and/or ligament injuries” (NOVARTIS AG, priority 2016, dated 2021)
Where two headings read alike, the source gives them in different places.

Legend:
[1] = system: Scleraxis (Scx) gene transcriptional activation, TT-D6 Scx-luciferase (ScxL) cell line; assay: SCX-LUC in vitro assay (scleraxis-luciferase reporter); format: cell-based, mouse; settings: read-out: Scx-Luc (EC50 μM)
[2] = In-vivo release from microparticles in a rat model; settings: PLGA microparticles
[3] = Cumulative release of microparticle formulations in PBS buffer (FIG. 1); format: physicochemical; settings: incorporated into PLGA microparticles; following the initial burst; PBS buffer pH 7.4, 1% Tween 20
[4] = Mus musculus, 96 h, TT-D6 Scx-luciferase cells, 1 ng/ml TGFβ1, four days

Row | SMILES | EC50 [1, 4] | also measured
1 | Nc1n[nH]c2ccc(-c3ccc(S(=O)(=O)NC4CCC(O)(C(F)(F)F)CC4)cc3Cl)nc12 [4-(3-amino-1H-pyrazolo[4,3-b]pyridin-5-yl)-3-chloro-N-((1R,4R)-4-hydroxy-4-(trifluoromethyl)cyclohexyl)benzenesulfonamide] |  | EC50 ([1]; TT-D6 Scx-luciferase cells, 1 ng/ml TGFβ1, four days): > 10 µM
2 | Nc1n[nH]c2ccc(-c3ccc(S(=O)(=O)N4CCC[C@H]4CO)cc3Cl)nc12 [(S)-(1-((4-(3-amino-1H-pyrazolo[4,3-b]pyridin-5-yl)-3-chlorophenyl)sulfonyl)pyrrolidin-2-yl)methanol] | > 10 µM | 
3 | Cc1cc(S(=O)(=O)N[C@H]2C[C@](O)(C(F)(F)F)C2)ccc1-c1ccc2[nH]nc(N)c2n1 [Example 2, 4-(3-amino-1H-pyrazolo[4,3-b]pyridin-5-yl)-N-((1s,3s)-3-hydroxy-3-(trifluoromethyl)cyclobutyl)-3-methylbenzenesulfonamide] |  | extended release in-vivo [2]: 4 weeks; period of steady state release of drug [3]: 21 days
4 | Nc1n[nH]c2ccc(-c3ccc(S(=O)(=O)N[C@H]4CCC[C@H]4O)cc3Cl)nc12 [Example 35, 4-(3-amino-1H-pyrazolo[4,3-b]pyridin-5-yl)-3-chloro-N-((1S,2R)-2-hydroxycyclopentyl)benzenesulfonamide] |  | EC50 ([1]; Mus musculus, 96 h): 2.73 µM
5 | Nc1n[nH]c2ccc(-c3ccc(NS(=O)(=O)c4ccccc4)cc3Cl)nc12 [Example 46, N-(4-(3-amino-1H-pyrazolo[4,3-b]pyridin-5-yl)-3-chlorophenyl)benzenesulfonamide] | 0.01 µM | 
6 | Nc1n[nH]c2ccc(-c3ccc(S(=O)(=O)NC4CCS(=O)(=O)CC4)cc3Cl)nc12 [Example 50, 4-(3-amino-1H-pyrazolo[4,3-b]pyridin-5-yl)-3-chloro-N-(1,1-dioxidotetrahydro-2H-thiopyran-4-yl)benzenesulfonamide] | > 10 µM | 
7 | CNS(=O)(=O)c1ccc(S(=O)(=O)Nc2ccc(-c3ccc4[nH]nc(N)c4n3)c(Cl)c2)cc1 [Example 76, N1-(4-(3-amino-1H-pyrazolo[4,3-b]pyridin-5-yl)-3-chlorophenyl)-N4-methylbenzene-1,4-disulfonamide] | 0.003 µM | 
